Reference: patent US20200093807A1, “NEW USE OF RIFAMYCIN-NITROIMIDAZOLE CONJUGATE MOLECULE” (TenNor Therapeutics Limited, priority 2017, published 2020)

How the values were obtained:
[1] = test system: Treponema denticola ATCC 35405; assay: MIC, anaerobic agar dilution (CLSI); type: cell-based; settings: ATCC35405, 35° C., 42-48 hours
Gardnerella = assay: MIC, agar dilution, Gardnerella; type: cell-based; settings: Gardnerella as major BV bacteria
[2] = test system: Prevotella asaccharolytica (MET^R) MMX 3552; assay: MIC, anaerobic agar dilution (CLSI); type: cell-based; settings: 35° C., 42-48 hours
[3] = test system: Bacteroides uniformis MMX 1277; assay: MIC, anaerobic agar dilution (CLSI); type: cell-based; settings: MMX1277; Bacteroides uniformis MMX 1277; anaerobic, 35° C., 42-48 hours; read-out: MIC
[4] = test system: Prevotella intermedia ATCC 25611; assay: MIC, anaerobic agar dilution (CLSI); type: cell-based; settings: ATCC25611, 35° C., 42-48 hours
[5] = test system: Lactobacillus jensenii ATCC 25258; assay: MIC, anaerobic agar dilution (CLSI); type: cell-based; settings: ATCC25258; Lactobacillus jensenii ATCC 25258; anaerobic, 35° C., 42-48 hours; read-out: MIC
Escherichia coli = settings: several bacteria such as Escherichia coli; U.S. Pat. No. 7,678,791 B2; cited from earlier work
[6] = test system: Clostridium sporogenes ATCC 19404; assay: MIC, anaerobic agar dilution (CLSI); type: cell-based; settings: ATCC19404, 35° C., 42-48 hours
[7] = test system: Prevotella bivia ATCC 29303; assay: MIC, anaerobic agar dilution (CLSI); type: cell-based; settings: ATCC29303, 35° C., 42-48 hours
[8] = test system: Peptoniphilus asaccharolyticus ATCC 29743; assay: MIC, anaerobic agar dilution (CLSI); type: cell-based; settings: ATCC29743, 35° C., 42-48 hours
[9] = test system: Eubacterium (rectale) ATCC 33656; assay: MIC, anaerobic agar dilution (CLSI); type: cell-based; settings: Agathobacter rectalis, ATCC33656, 35° C., 42-48 hours
[10] = test system: Mobiluncus (mulieris) ATCC 35243; assay: MIC, anaerobic agar dilution (CLSI); type: cell-based; settings: ATCC35243, 35° C., 42-48 hours
[11] = test system: Clostridium perfringens (MET^R) MMX 3521; assay: microbe, parasite or virus in culture; type: cell-based
[12] = test system: Prevotella disiens MMX 3446; assay: MIC, anaerobic agar dilution (CLSI); type: cell-based; settings: MMX3446, 35° C., 42-48 hours
[13] = test system: Bacteroides fragilis (MET^R) MMX 3387; assay: MIC, anaerobic agar dilution (CLSI); type: cell-based; settings: Bacteroides fragilis (MET^R) MMX 3387; anaerobic, 35° C., 42-48 hours; read-out: MIC
[14] = test system: Prevotella bivia (MET^R) MMX 3454; assay: MIC, anaerobic agar dilution (CLSI); type: cell-based; settings: 35° C., 42-48 hours
[15] = test system: Prevotella disiens MMX 3457; assay: MIC, anaerobic agar dilution (CLSI); type: cell-based; settings: MMX3457, 35° C., 42-48 hours
[16] = test system: Bacteroides thetaiotaomicron (MET^R) MMX 3409; assay: microbe, parasite or virus in culture; type: cell-based; settings: Bacteroides thetaiotaomicron (MET^R) MMX 3409; anaerobic, 35° C., 42-48 hours; read-out: MIC
[17] = test system: Peptostreptococcus (magnus) ATCC 14956; assay: MIC, anaerobic agar dilution (CLSI); type: cell-based; settings: Finegoldia magna, ATCC14956, 35° C., 42-48 hours
[18] = test system: Gardnerella vaginalis ATCC 49145; assay: MIC, anaerobic agar dilution (CLSI); type: cell-based; settings: ATCC49145, 35° C., 42-48 hours
[19] = test system: Fusobacterium nucleatum ATCC 10953; assay: MIC, anaerobic agar dilution (CLSI); type: cell-based; settings: ATCC10953, 35° C., 42-48 hours
[20] = test system: Bacteroides ovatus (MET^R) MMX 3504; assay: MIC, anaerobic agar dilution (CLSI); type: cell-based; settings: 35° C., 42-48 hours
[21] = test system: Bifidobacterium longum ATCC 15707; assay: MIC, anaerobic agar dilution (CLSI); type: cell-based; settings: ATCC15707, 35° C., 42-48 hours
[22] = test system: Actinomyces naeslundii ATCC 12104; assay: MIC, anaerobic agar dilution (CLSI); type: cell-based; settings: ATCC12104, 35° C., 42-48 hours
[23] = test system: Lactobacillus gasseri ATCC 33323; assay: MIC, anaerobic agar dilution (CLSI); type: cell-based; settings: ATCC33323; Lactobacillus gasseri ATCC 33323; anaerobic, 35° C., 42-48 hours; read-out: MIC
Atopobium vaginae BAA-55 = assay: MIC, anaerobic agar dilution (CLSI); type: cell-based; settings: Fannyhessea vaginae, BAA55; Atopobium vaginae BAA-55; anaerobic, 35° C., 42-48 hours; read-out: MIC
[24] = test system: Bacteroides vulgatus MMX 8348; assay: MIC, anaerobic agar dilution (CLSI); type: cell-based; settings: Phocaeicola vulgatus, MMX8348, 35° C., 42-48 hours
[25] = test system: Anaerococcus (Anaerococcus(prevotii)) ATCC 9321; assay: MIC, anaerobic agar dilution (CLSI); type: cell-based; settings: 35° C., 42-48 hours
[26] = test system: Mobiluncus (curtisii subsp. curtisii) ATCC 35241; assay: MIC, anaerobic agar dilution (CLSI); type: cell-based; settings: ATCC35241, 35° C., 42-48 hours
[27] = test system: Peptococcus (niger) ATCC 27731; assay: MIC, anaerobic agar dilution (CLSI); type: cell-based; settings: ATCC27731, 35° C., 42-48 hours
[28] = test system: Lactobacillus crispatus ATCC 33820; assay: MIC, anaerobic agar dilution (CLSI); type: cell-based; settings: ATCC33820; Lactobacillus crispatus ATCC 33820; anaerobic, 35° C., 42-48 hours; read-out: MIC
[29] = test system: Veionella parvula ATCC 17745; assay: MIC, anaerobic agar dilution (CLSI); type: cell-based; settings: 35° C., 42-48 hours
[30] = test system: Fusobacterium nucleatum ATCC 25586; assay: MIC, anaerobic agar dilution (CLSI); type: cell-based; settings: ATCC25586, 35° C., 42-48 hours
[31] = test system: Peptostreptococcus anaerobius ATCC 27337; assay: MIC, anaerobic agar dilution (CLSI); type: cell-based; settings: ATCC27337, 35° C., 42-48 hours
[32] = test system: Bacteroides fragilis (QC) ATCC 25285; assay: MIC, anaerobic agar dilution (CLSI); type: cell-based; settings: ATCC25285, 35° C., 42-48 hours
[33] = test system: Bacteroides gracilis ATCC 33236; assay: MIC, anaerobic agar dilution (CLSI); type: cell-based; settings: Campylobacter gracilis, ATCC33236; Bacteroides gracilis ATCC 33236; anaerobic, 35° C., 42-48 hours; read-out: MIC
[34] = test system: Bacteroides vulgatus (MET^R) MMX 3490; assay: MIC, anaerobic agar dilution (CLSI); type: cell-based; settings: Phocaeicola vulgatus; Bacteroides vulgatus (MET^R) MMX 3490; anaerobic, 35° C., 42-48 hours; read-out: MIC
[35] = test system: Gardnerella vaginalis ATCC 14018; assay: MIC, anaerobic agar dilution (CLSI); type: cell-based; settings: ATCC14018, 35° C., 42-48 hours
[36] = test system: Prevotella bivia MMX 3450; assay: MIC, anaerobic agar dilution (CLSI); type: cell-based; settings: MMX3450, 35° C., 42-48 hours
[37] = test system: Bifidobacterium (breve) ATCC 15698; assay: MIC, anaerobic agar dilution (CLSI); type: cell-based; settings: ATCC15698, 35° C., 42-48 hours

CO[C@H]1/C=C/O[C@@]2(C)Oc3c(C)c(O)c4c(c3C2=O)C2=NC3(CCN(CCn5c([N+](=O)[O-])cnc5C)CC3)NC2=C(NC(=O)/C(C)=C\C=C\[C@H](C)[C@H](O)[C@@H](C)[C@@H](O)[C@@H](C)[C@H](OC(C)=O)[C@@H]1C)C4=O [Compound I, 4-deoxy-3,4-[2-spiro-[2-(2-methyl-5-nitro-imidazole-1-yl)ethyl]-piperidine-4-yl]-(1-hydrogen)-imidazo-(2,5-dihydro) rifamycin S]
0.001 µg/mL: MIC [10] | MIC [22] | MIC [30]
0.0005 µg/mL: MIC [4] | MIC [9] | MIC [17] | MIC [25] | MIC [27] | MIC [36]
4 µg/mL: MIC [28]
0.5 µg/mL: MIC [33]
0.03 µg/mL: MIC [3] | MIC [16] | MIC (Atopobium vaginae BAA-55) | MIC [24] | MIC [32] | MIC [34]
0.12 µg/mL: MIC [19] | MIC [20]
0.002 µg/mL: MIC [1] | MIC [26] | MIC [31]
0.015 µg/mL: MIC [6] | MIC [7] | MIC [12] | MIC [13] | MIC [14] | MIC [21] | MIC [23] | MIC [37]
0.004 µg/mL: MIC (Gardnerella) | MIC [18] | MIC [35]
0.008 µg/mL: MIC [2] | MIC [5] | MIC [8] | MIC [15]
2 µg/mL: MIC [11] | MIC [29]
has antimicrobial activity: antimicrobial activity (Escherichia coli)
